In patent US5981576A, “(Methylsulfonyl)phenyl-2-(5H)-furanones as COX-2 inhibitors” (Merck Frosst Canada, Inc., priority 1998, dated 1999):

Assays:
COX-1 [1] = target: T1, COX-1 (Homo sapiens, UniProt P23219); experiment: biochemical; assay type: biochemical; conditions: Table III; U937
Description: Compounds are tested as inhibitors of cyclooxygenase activity in whole cell cyclooxygenase assays. Both of these assays measure prostaglandin E2 synthesis in response to arachidonic acid, using a radioimmunoassay. Cells used for these assays are human osteosarcoma 143 cells (which specifically express COX-2) and human U-937 cells (which specifically express COX-1). In these assays, 100% activity is defined as the difference between prostaglandin E2 synthesis in the absence and presence of arachidonate.
U 937 cells are pelleted by centrifugation at 500×g for 5 min and washed once with phosphate-buffered saline and repelleted. Cells are resuspended in homogenization buffer consisting of 0.1 M Tris-HCl, pH 7.4, 10 mM EDTA, 2 μg/ml leupeptin, 2 μg/ml soybean trypsin inhibitor, 2 μg/ml aprotinin and 1 mM phenyl methyl sulfonyl fluoride. The cell suspension is sonicated 4 times for 10 sec and is centrifuged at 10,000×g for 10 min at 4° C. The supernatant is centrifuged at 100,000×g for 1 hr at 4 ° C. The 100,000×g microsomal pellet is resuspended in 0.1 M Tris-HCl, pH 7.4, 10 mM EDTA to approximately 7 mg protein/ml and stored at -80° C.
Microsomal preparations are thawed immediately prior to use, subjected to a brief sonication, and then diluted to a protein concentration of 125 μg/ml in 0.1 M Tris-HCl buffer, pH 7.4 containing 10 mM EDTA, 0.5 mM phenol, 1 mM reduced glutathione and 1 μM hematin. Assays are performed in duplicate in a final volume of 250 μl. Initially, 5 μd of DMSO vehicle or drug in DMSO are added to 20 μl of 0.1 M Tris-HCl buffer, pH 7.4 containing 10 mM EDTA in wells of a 96-deepwell polypropylene titre plate. 200 μl of the microsomal preparation are then added and pre-incubated for 15 min at room temperature before addition of 25 μl of […] in 0.1 M Tris-HCl and 10 mM EDTA, pH 7.4. […] Cyclooxygenase activity is defined as the difference between PGE2 levels in samples incubated in the presence of arachidonic acid and ethanol vehicle.

COX-1 [2] = target: T1, COX-1; experiment: Human whole blood assay, COX-1 (clotting-induced TxB2 production); assay type: cell-based; conditions: Table III, read-out: COX-1 (IC50) HWB
Description: As well, platelets in whole blood contain a large amount of the COX-1 enzyme. Immediately following blood clotting, platelets are activated through a thrombin-mediated mechanism. […] Therefore, the degree of selectivity by the test compound can be determined by measuring the levels of PGE2 after LPS induction (COX-2) and TxB2 following blood clotting (COX-1) in the same assay.
B. COX-1 (Clotting-induced TxB2 production)
Fresh blood is collected into vacutainers containing no anticoagulants. Aliquots of 500 μL are immediately transferred to siliconized microcentrifuge tubes preloaded with 2 μL of either DMSO or a test compound at final concentrations varying from 10 nM to 30 μM. The tubes are vortexed and incubated at 37° C. for 1 hour to allow blood to clot. At the end of incubation, serum is obtained by centrifugation (12,000×g for 5 min.). A 100 μL aliquot of serum is mixed with 400 μL of methanol for protein precipitation.

T1 sequence (P23219 24-599): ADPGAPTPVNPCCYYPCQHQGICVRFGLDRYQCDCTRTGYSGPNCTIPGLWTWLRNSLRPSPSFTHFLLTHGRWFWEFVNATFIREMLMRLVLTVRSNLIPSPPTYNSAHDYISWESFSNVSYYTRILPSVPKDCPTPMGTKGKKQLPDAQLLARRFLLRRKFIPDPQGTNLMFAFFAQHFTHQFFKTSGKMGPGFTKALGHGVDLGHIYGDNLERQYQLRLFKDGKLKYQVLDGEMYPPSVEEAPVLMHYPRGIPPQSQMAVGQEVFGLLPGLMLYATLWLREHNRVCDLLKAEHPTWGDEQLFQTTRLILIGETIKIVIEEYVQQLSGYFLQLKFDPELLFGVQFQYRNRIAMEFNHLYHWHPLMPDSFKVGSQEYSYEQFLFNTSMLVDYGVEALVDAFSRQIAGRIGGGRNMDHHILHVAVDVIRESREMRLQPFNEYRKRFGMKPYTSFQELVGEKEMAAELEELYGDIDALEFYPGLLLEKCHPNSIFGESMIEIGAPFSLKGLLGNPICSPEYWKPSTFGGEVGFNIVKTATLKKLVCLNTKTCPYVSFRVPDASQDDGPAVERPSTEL

Row | IC50 (COX-1 [1]) [µM] | IC50 (COX-1 [2]) [µM] | Compound
1 | 0.99 | 9.2 | CC1(C)OC(=O)C(Oc2ccc(F)c(F)c2)=C1c1ccc(S(C)(=O)=O)cc1 [Example 1, 3-(3,4-Difluorophenoxy)-5,5-dimethyl-4-(4-(methylsulfonyl)phenyl)-5H-furan-2-one]
2 | > 10 | 58.3 | CC1(C)OC(=O)C(OC2CCCCC2)=C1c1ccc(S(C)(=O)=O)cc1 [Example 14, 3-Cyclohexyloxy-5,5-dimethyl-4-(4-(methylsulfonyl)phenyl)-5H-furan-2-one]
3 | > 3 | 25.3 | COC1(C)OC(=O)C(Oc2ccc(F)c(F)c2)=C1c1ccc(S(C)(=O)=O)cc1 (stereo not drawn) [Example 24c, 3-(3,4-Difluorophenoxy)-5-methoxy-5-methyl-4-(4-(methylsulfonyl)phenyl)-5H-furan-2-one]
